# In patent US10517889B2, “Modulators of SMAD7 expression” (Ionis Pharmaceuticals, Inc., priority 2017, dated 2019):
# Strand notation (5' to 3'): a small letter for the sugar, then the base; units joined by * are phosphorothioate-linked, units joined directly phosphodiester-linked; [ ] holds rarer units or linkages, { } end groups; capitals alone tell only the bases. k = constrained ethyl (cEt); [5mC] = 5-methylcytosine; d = 2'-deoxy (DNA)
# Tested on: human SMAD7 mRNA
# Assay: Antisense inhibition of human SMAD7 mRNA expression in Hep3B cells by 3-10-3 cEt gapmers, 10,000 nM, electroporation (Example 2)
# Format: cell-based
# Details: Hep3B cells, 10,000 nM antisense oligonucleotide, electroporation, approximately 24 hours, RT-PCR primer probe set RTS5062, relative to untreated control cells
# Method in brief: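 Percent inhibition of SMAD7 mRNA, relative to untreated cells, after ~24 h exposure of electroporated Hep3B cells to 10,000 nM cEt gapmer; levels by qRT-PCR, corrected for total RNA.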
row,Substance,% Inhibition [%]
1,800012 (kG*kA*kG*dG*dA*d[5mC]*dT*dT*d[5mC]*dA*dG*d[5mC]*d[5mC]*kT*kG*kT; antisense) [compound 800012],49
2,799893 (antisense kA*kT*kA*d[5mC]*dA*dA*dA*d[5mC]*d[5mC]*dA*d[5mC]*dT*dG*k[5mC]*kA*kT) [compound 799893],0
3,799977 (kG*kG*kA*d[5mC]*dA*dT*d[5mC]*dT*d[5mC]*dA*dA*dA*dG*kG*kT*kT; antisense) [compound 799977],36
4,799895 (antisense k[5mC]*kT*kG*dA*dG*dA*dG*dT*dG*dT*dA*dG*dG*kA*kG*kA) [compound 799895],50
5,799957 (antisense kT*k[5mC]*kT*dG*dA*dG*dG*d[5mC]*dT*d[5mC]*d[5mC]*dT*dG*kG*kG*kT) [compound 799957],11

# Same assay, conditions: Hep3B cells, electroporation with 10,000 nM antisense oligonucleotide, approximately 24 hours, RTS5062, percent inhibition of SMAD7 mRNA relative to untreated control cells
row,Substance,% Inhibition [%]
1,799729 (antisense kT*kA*kT*d[5mC]*dT*dT*d[5mC]*d[5mC]*d[5mC]*dG*d[5mC]*dT*dG*kA*kA*kA) [compound 799729],52
2,790715 (kT*kG*kT*d[5mC]*dA*d[5mC]*d[5mC]*d[5mC]*dG*dT*d[5mC]*dT*dG*kG*kG*k[5mC]; antisense) [compound 790715],16
3,799789 (kA*k[5mC]*kA*d[5mC]*dA*dA*d[5mC]*d[5mC]*dA*dA*dA*dG*d[5mC]*kA*kG*kA; antisense) [compound 799789],44

# Same assay, conditions: Hep3B cells, electroporation with 10,000 nM antisense oligonucleotide, approximately 24 hours, SMAD7 mRNA by RT-PCR (RTS5062), relative to untreated control cells
row,Substance,% Inhibition [%]
1,830045 (k[5mC]*k[5mC]*kG*dA*dT*dT*dG*dG*d[5mC]*dA*dG*dG*dT*kT*kA*kA; antisense) [compound 830045],47
2,799357 (k[5mC]*kA*k[5mC]*dA*dA*d[5mC]*dA*dG*dA*dA*dA*dA*dA*kT*kT*k[5mC]; antisense) [compound 799357],41
3,799861 (kA*k[5mC]*k[5mC]*dG*d[5mC]*dA*dT*dG*d[5mC]*dG*dA*dT*d[5mC]*kG*kG*kT; antisense) [compound 799861],15
4,830022 (antisense kG*kG*k[5mC]*dT*dG*d[5mC]*dA*dG*dA*dG*dT*dA*dT*kG*kG*kG) [compound 830022],59
5,830057 (k[5mC]*kG*kT*dT*dT*dT*dG*dG*dG*dT*dG*dA*dG*kT*kA*kA; antisense) [compound 830057],42
6,798767 (kT*k[5mC]*k[5mC]*dG*dG*d[5mC]*d[5mC]*dA*d[5mC]*d[5mC]*dT*dG*dA*kA*k[5mC]*kA; antisense) [compound 798767],0
7,799887 (antisense k[5mC]*kA*kG*dG*dA*d[5mC]*dA*dG*dT*dT*dT*dT*dT*k[5mC]*k[5mC]*k[5mC]) [compound 799887],29
8,799473 (antisense kT*kA*kT*d[5mC]*d[5mC]*d[5mC]*dA*dT*dG*dG*d[5mC]*dT*d[5mC]*kT*k[5mC]*kA) [compound 799473],63
9,799259 (antisense kT*kG*k[5mC]*d[5mC]*d[5mC]*d[5mC]*dA*dA*dA*dA*d[5mC]*dT*d[5mC]*k[5mC]*kA*kA) [compound 799259],45
10,830165 (antisense kA*k[5mC]*kA*dG*d[5mC]*dT*dG*dT*dA*d[5mC]*d[5mC]*dA*dG*kG*kG*k[5mC]) [compound 830165],58
11,799433 (antisense kT*kT*k[5mC]*dT*dT*dG*dT*dG*dG*dG*dA*dT*dG*kT*kG*kG) [compound 799433],56
12,798918 (kT*k[5mC]*kA*dG*d[5mC]*dT*d[5mC]*dA*d[5mC]*dG*d[5mC]*dT*d[5mC]*kT*kG*kT; antisense) [compound 798918],44

# Same assay, conditions: Hep3B cells, electroporation with 10,000 nM antisense oligonucleotide, approximately 24 hours, primer probe set RTS5062, relative to untreated control cells
Substance,% inhibition of SMAD7 mRNA expression [%],% Inhibition [%]
798711 (antisense k[5mC]*kG*kG*d[5mC]*d[5mC]*d[5mC]*d[5mC]*dA*dT*dG*d[5mC]*dG*d[5mC]*kT*k[5mC]*kG) [compound 798711],59,–
798658 (kA*k[5mC]*k[5mC]*d[5mC]*d[5mC]*dG*d[5mC]*dG*d[5mC]*dG*dG*d[5mC]*d[5mC]*k[5mC]*kG*k[5mC]; antisense) [compound 798658],71,–
799107 (antisense k[5mC]*kT*kG*dG*dT*dT*dT*dT*d[5mC]*dT*dA*dA*dG*kT*k[5mC]*k[5mC]) [compound 799107],51,–
799219 (kT*kG*kG*d[5mC]*dA*dT*dT*dT*dG*dT*dT*dA*dT*kT*kT*kG; antisense) [compound 799219],–,0
772700 (k[5mC]*kT*kT*dT*dA*dA*dT*dA*dA*dA*dT*d[5mC]*dT*k[5mC]*kA*kG; antisense) [compound 772700],–,24
799234 (kA*kA*kA*d[5mC]*dA*dT*dT*d[5mC]*dA*dG*d[5mC]*dT*dA*kG*kG*kT; antisense) [compound 799234],13,–
798727 (antisense kT*kG*kG*d[5mC]*dA*d[5mC]*d[5mC]*dT*d[5mC]*dG*d[5mC]*dA*d[5mC]*k[5mC]*kG*k[5mC]) [compound 798727],51,–
799440 (antisense kT*kA*kG*dA*dA*dA*dA*dG*dT*dT*dA*dA*dG*kA*kG*kG) [compound 799440],41,–
799443 (antisense kT*k[5mC]*kA*dT*dG*d[5mC]*dT*dG*dA*dT*dT*dT*dT*kA*kA*kA) [compound 799443],24,–
798773 (kT*kG*kA*d[5mC]*dT*dT*d[5mC]*d[5mC]*dG*dA*dG*dG*dA*kA*kT*kG; antisense) [compound 798773],40,–
798745 (antisense kG*k[5mC]*kA*dG*d[5mC]*dT*d[5mC]*d[5mC]*dA*dG*d[5mC]*dT*dG*k[5mC]*k[5mC]*kG) [compound 798745],0,–
799163 (antisense kA*kA*kG*dT*dA*dT*d[5mC]*dA*dT*dA*d[5mC]*dG*dA*kG*kT*kG) [compound 799163],45,–
799477 (antisense kG*kT*kT*d[5mC]*d[5mC]*dA*dT*dA*dG*dG*d[5mC]*dA*dG*k[5mC]*k[5mC]*kA) [compound 799477],4,–
799108 (antisense k[5mC]*kT*kG*dA*dG*d[5mC]*dT*dG*dG*dT*dT*dT*dT*k[5mC]*kT*kA) [compound 799108],64,–

# Same assay, conditions: Hep3B cells, electroporation, 10,000 nM antisense oligonucleotide, approximately 24 hours, RTS5062, relative to untreated control cells
row,Substance,% inhibition of SMAD7 mRNA expression [%]
1,799693 (antisense kT*kT*kA*dT*dG*dA*d[5mC]*dA*d[5mC]*dA*dG*dT*dA*kA*k[5mC]*kA) [compound 799693],17
2,799792 (kA*k[5mC]*k[5mC]*dA*dA*dA*dA*d[5mC]*d[5mC]*d[5mC]*dG*dG*dG*kA*kG*kA; antisense) [compound 799792],31
3,799732 (antisense kG*kG*kG*dA*dT*d[5mC]*dA*dG*dG*dT*dG*dA*dG*kT*kG*kT) [compound 799732],48
4,799772 (k[5mC]*kG*k[5mC]*d[5mC]*dG*d[5mC]*dG*dG*d[5mC]*dA*dT*dA*dT*kG*k[5mC]*k[5mC]; antisense) [compound 799772],30
5,799538 (kT*kG*k[5mC]*dA*dG*dG*dA*dT*dG*dA*dG*dG*dA*kG*k[5mC]*kT; antisense) [compound 799538],29
6,799813 (antisense kA*kT*kG*d[5mC]*dA*dG*dA*d[5mC]*dA*dG*d[5mC]*dT*dA*kA*kT*k[5mC]) [compound 799813],16
7,799679 (antisense k[5mC]*kT*kG*d[5mC]*dA*dG*dG*dG*dT*dA*d[5mC]*dT*dA*kA*kG*kG) [compound 799679],0

# Same assay, conditions: SMAD7 mRNA, Hep3B cells, 10,000 nM antisense oligonucleotide, electroporation, approximately 24 hours, primer probe set RTS5062, relative to untreated control cells
row,Substance,% Inhibition [%]
1,829725 (antisense k[5mC]*k[5mC]*kG*dT*dG*dG*d[5mC]*dA*dT*dG*d[5mC]*dG*d[5mC]*k[5mC]*kA*kG) [compound 829725],41
2,829718 (antisense k[5mC]*k[5mC]*kA*dG*dT*d[5mC]*dT*d[5mC]*d[5mC]*d[5mC]*dG*dG*dA*kG*kG*k[5mC]) [compound 829718],15
3,829727 (antisense kG*k[5mC]*kT*d[5mC]*d[5mC]*dG*dT*dG*dG*d[5mC]*dA*dT*dG*k[5mC]*kG*k[5mC]) [compound 829727],35
4,790871 (kT*kG*kT*dT*dA*dG*dG*dA*d[5mC]*d[5mC]*dT*dG*dG*kG*kA*kA; antisense) [compound 790871],39
5,829752 (antisense k[5mC]*k[5mC]*kG*d[5mC]*dA*dG*d[5mC]*dT*d[5mC]*dG*d[5mC]*d[5mC]*dT*k[5mC]*k[5mC]*kT) [compound 829752],27

# Same assay, conditions: SMAD7 mRNA, Hep3B cells, electroporation with 10,000 nM antisense oligonucleotide, approximately 24 hours, primer probe set RTS5062, relative to untreated control cells
row,Substance,% Inhibition [%]
1,829844 (antisense k[5mC]*kG*kA*dA*dT*dT*dG*dA*dG*d[5mC]*dT*dG*dT*k[5mC]*k[5mC]*kG) [compound 829844],49
2,829800 (kG*kT*k[5mC]*dG*dG*d[5mC]*dT*dA*dA*dG*dG*dT*dG*kA*kT*kG; antisense) [compound 829800],30
3,829931 (kA*kA*k[5mC]*dA*d[5mC]*d[5mC]*dA*dA*dT*d[5mC]*dT*dT*dG*kT*kG*kT; antisense) [compound 829931],0
